Here are results for 1 compound from ChEMBL document CHEMBL5030563, “Structure-Based Design of Dual-Acting Compounds Targeting Adenosine A2A Receptor and Histone Deacetylase as Novel Tumor Immunotherapeutic Agents” (J Med Chem, 2021).

For one data set, the target named is T1, Adenosine receptor A3 (Homo sapiens, UniProt P0DMS8).
T1 sequence (P0DMS8 whole entry): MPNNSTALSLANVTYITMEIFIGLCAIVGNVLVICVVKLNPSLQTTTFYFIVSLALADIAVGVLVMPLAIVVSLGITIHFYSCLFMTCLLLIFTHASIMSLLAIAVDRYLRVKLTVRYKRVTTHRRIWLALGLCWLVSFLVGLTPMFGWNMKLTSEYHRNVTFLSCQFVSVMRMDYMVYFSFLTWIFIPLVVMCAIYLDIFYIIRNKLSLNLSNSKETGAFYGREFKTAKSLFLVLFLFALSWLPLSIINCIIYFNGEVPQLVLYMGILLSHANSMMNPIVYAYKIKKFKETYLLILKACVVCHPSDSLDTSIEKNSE
Nature of the data set: Displacement of [3H]DPCPX from human adenosine A3 receptor membrane (unknown origin) measured after 60 mins by scintillation counting analysis. The format is cell membranes.

The nature of data set [1]: Clearance in ICR mouse at 5 mg/kg, iv up to 24 hrs by LC-MS/MS analysis. The data set is classed as ADME, organism-based. Conditions: in vivo.
Data set [2] can be described thus: Half life in ICR mouse at 20 mg/kg, ip up to 24 hrs by LC-MS/MS analysis. The data set is classed as ADME, organism-based. Conditions: in vivo.
Another data set deals with MC38. The experiment in a line: Inhibition of HDAC in mouse MC38 cells assessed as increase in acetyl-histone H4 measured after 24 hrs by Western blot analysis. The format is cell-based. For orientation: In western blotting, separated proteins are transferred to a membrane and probed.
The target in data set [3] is T2, Polyamine deacetylase HDAC10 (Homo sapiens, UniProt Q969S8).
T2 sequence (Q969S8 whole entry): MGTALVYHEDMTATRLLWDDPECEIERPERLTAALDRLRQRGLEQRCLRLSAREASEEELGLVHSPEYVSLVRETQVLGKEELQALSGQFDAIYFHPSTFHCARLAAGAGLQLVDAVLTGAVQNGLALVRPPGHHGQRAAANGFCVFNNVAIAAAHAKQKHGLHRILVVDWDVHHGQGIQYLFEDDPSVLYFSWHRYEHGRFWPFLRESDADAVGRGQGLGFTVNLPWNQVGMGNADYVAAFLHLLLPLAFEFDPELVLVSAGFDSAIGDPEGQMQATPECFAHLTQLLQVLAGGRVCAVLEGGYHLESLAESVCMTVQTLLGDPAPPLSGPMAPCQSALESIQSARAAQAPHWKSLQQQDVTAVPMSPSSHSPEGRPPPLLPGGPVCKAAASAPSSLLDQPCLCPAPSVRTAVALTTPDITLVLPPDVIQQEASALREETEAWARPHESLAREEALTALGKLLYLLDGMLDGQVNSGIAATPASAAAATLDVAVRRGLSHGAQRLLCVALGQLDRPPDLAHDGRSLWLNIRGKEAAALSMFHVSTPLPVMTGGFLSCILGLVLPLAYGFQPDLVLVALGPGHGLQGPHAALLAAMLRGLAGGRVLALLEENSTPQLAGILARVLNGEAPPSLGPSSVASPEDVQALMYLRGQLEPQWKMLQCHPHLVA
The experiment in a line: Inhibition of HDAC10 (unknown origin) assessed as release of 7-amino-4-methylcoumarin incubated in room temperature for 15 min measured by Spectra max microtitre plate reader.

The target of the next data set is T3, Adenosine receptor A1 (Homo sapiens, UniProt P30542).
T3 sequence (P30542 whole entry): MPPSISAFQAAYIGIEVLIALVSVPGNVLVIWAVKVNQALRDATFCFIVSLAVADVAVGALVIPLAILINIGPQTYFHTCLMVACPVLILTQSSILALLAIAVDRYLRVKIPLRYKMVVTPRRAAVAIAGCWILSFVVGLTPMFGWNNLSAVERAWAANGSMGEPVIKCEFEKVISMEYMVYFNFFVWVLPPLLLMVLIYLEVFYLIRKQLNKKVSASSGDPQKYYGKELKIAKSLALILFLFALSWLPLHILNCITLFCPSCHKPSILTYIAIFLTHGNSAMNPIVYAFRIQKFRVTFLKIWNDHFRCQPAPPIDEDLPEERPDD
The experiment in a line: Displacement of [3H]DPCPX from human adenosine A1 receptor membrane (unknown origin) measured after 60 mins by scintillation counting analysis. The format is cell membranes.

Data set [4] can be described thus: MRT in ICR mouse at 20 mg/kg, po by LC-MS/MS analysis. The data set is classed as ADME, organism-based. Conditions: in vivo.

The structures appear in SMILES notation. pIC50, pKi: −log10 of the molar value. Some results are limits rather than exact numbers.

As usually defined, the pKi is the Ki on a negative log10 scale, so that one unit is a factor of ten. One may read the clearance as the rate of elimination divided by the concentration. Read a low clearance as inefficient removal. A word on the half-life: it is how long it takes for the measured level to halve. Low readings indicate rapid decline, high ones slow decline. In general, pIC50 refers to the IC50 on a negative log10 scale, so that one unit is a factor of ten. Broadly, the MRT is a mean duration of stay, worked out from the concentration-time curve. On to `Nc1ccccc1NC(=O)c1ccc(CCn2ncc3c2nc(N)n2nc(-c4ccco4)nc32)cc1`, for which the pKi at Adenosine receptor A3 was less than 5.00; on Adenosine receptor A1, 7.15. For the same compound, the clearance in data set [1] was 59 mL/min/kg. The same compound showed a half-life in data set [2] of 1.89 h. In addition, the Activity result with MC38 was “Dose-Dependent Effect”. Besides, in data set [3], the pIC50 is 6.20. Moreover, the MRT in data set [4] came out at 1.41 h.
